From publication PMC8761492 (Life Science Alliance, 2022)
Where “and” joins values, the source holds several entries; their conditions need not be identical. Equal values may be shown once. Read-outs that look alike come from different tables or passages of the source. Starred links: 1 amine or outer side, 2 acyl side, 3 side chain; linkers in the order of their positions; H or OH if unused. Positions of bridges follow the written chain, without caps; N, C: chain ends. Non-standard residues stand in square brackets, D forms with d. Residues, ends and D or L forms follow the SMILES beside them. *: point of attachment. X1 = CC[C@H](C)[C@@H](N[*:1])[C@@H](O)CC(=O)O[C@H](C(=O)[C@H](C)C(=O)[*:2])C(C)C; NMeY = CN[C@@H](Cc1ccc(O)cc1)C(=O)O; dNMeL = CN[C@H](CC(C)C)C(=O)O; Pyruvoyl = CC(=O)C(=O)*

Columns and labels:
SARS-CoV = assay type: cell-based; settings: Vero E6 cells; 50 nM; 48 hpi
[1] = Drug-induced cytotoxicity in Vero E6 cells in the absence of virus; assay type: cell-based; settings: monkey, Vero E6 cells (ATCC CRL-1586), uninfected, Vero E6 cells without virus
SARS-CoV-2/WA1 = experiment: SARS-CoV-2 infectivity in HeLa-ACE2 cells (viral NP); assay type: cell-based; settings: Severe acute respiratory syndrome coronavirus 2, HeLa-ACE2, 48 h
[2] = Tissue distribution of total radioactivity after single IV bolus of [14C]plitidepsin; assay type: in vivo, Sprague–Dawley rats; settings: rat, 0.2 mg/kg i.v. bolus
Description: An in vivo distribution study was carried out in rats. PM140064 (14C1-Plitidepsin) was supplied by PharmaMar at a radiochemical purity of 95% or greater, with no single impurity 3% or greater. The study was conducted at Aptuit Srl ([54]).
24 male and 24 female Sprague–Dawley rats each received a single IV bolus administration of [14C] Plitidepsin at a target dose of 0.2 mg/kg. After administration, three animals per time-point (0.25, 1, 2, 4, 8, 24, 48, and 72 h post-dose) were exsanguinated from the abdominal aorta and blood retained. Actual times of bleeding were recorded. In addition to blood, the following tissues were collected: brain, eyeballs, heart, liver, lung, skeletal muscle (quadriceps), fat, kidneys, stomach, skin, small intestine, spleen, thyroid, lymph nodes, and testes or ovaries. At the end of the collection period animals were euthanized by CO2 asphyxiation and the carcasses were discarded. Additional animals were bled to obtain control blood/plasma and tissues.

SARS-CoV-2 [3] = experiment: APLICOV-PC: SARS-CoV-2 viral load by qRT-PCR of nasopharyngeal samples; assay type: in vivo, human; settings: for mean viral load decline from baseline: all doses; for log10 viral load: individual patients, ND = not detected
Description: Secondary outcomes included change from baseline of viral load, as evaluated by quantitative PCR via central laboratory on nasopharyngeal exudate or sampled from the lower respiratory tract within 48 h before first administration of plitidepsin and on days 4, 7, 15, and 31, and the percentage of patients requiring oxygen therapy, noninvasive mechanical ventilation, invasive mechanical ventilation and/or intensive care unit admission, and the percentage of patients with a fatal outcome on days 7, 15, and 31.
Centralized assessments of nasopharyngeal samples were performed at SYNLAB. Viral RNA extraction from the samples was performed using the Maxwell HT Viral TNA (AX2340) Promega, on the Hamilton automated extraction platform. Detection of nCoV2019 was carried out with the kit: TaqPath TM COVID-19 RT-PCR KIT (A48102) Thermo Fisher Scientific. The positivity/negativity criteria used for the interpretation of the results are defined in Table S7.
Each sample was analyzed in triplicate, and the cycle threshold (CT) value obtained was extrapolated to the standard curve, so that a value of viral load is obtained per reaction for said sample. The quantification, in triplicate, of the viral load of the patient sample was carried out at each of the five time points.
For quantification, in each sample plate, eight points, in triplicate (24 PCR in total), of the plasmid IDT 2019 nCov Kit CDC EUA of known viral load was used to generate the standard line on which to extrapolate the results of the samples of the trial patients. The sensitivity of the analytical method is 10 mRNA copies/run. Assuming a starting sample volume of 200 μl, from which 100 μl of mRNA can be obtained, and that a single PCR run requires 5 μl mRNA, it can be estimated that the sensitivity for 100% of the replicates is 1,000 mRNA copies/ml (3 log10). For mathematical analysis and graphical visualization, an intermediate value of 1.5 log10 has been imputed to samples with undetected SARS-CoV-2 mRNA.

SARS-CoV-2 [4] = tested on: SARS-CoV-2; design: method as in PMID 33495306; settings: SARS-CoV-2 in vitro; cited from earlier work
[5] = human, cited from earlier work
SARS-CoV-2 [6] = tested on: SARS-CoV-2; design: method as in PMID 33495306; settings: in vivo; cited from earlier work
CYP3A4 = tested on: CYP3A4; design: method as in study protocol; settings: in vitro studies; ref study protocol; cited from earlier work
[7] = cited from earlier work
[8] = APLICOV-PC: central analysis of electrocardiograms; settings: 317 ECGs from 44 patients; no value above
SARS-CoV-2 [9] = experiment: SARS-CoV-2-induced cytopathic effect in Vero E6 cells (CellTiter-Glo); settings: read-out: IC50 against SARS-CoV-2-induced cytopathic effects, 3 d post infection
[10] = Protocol estimate of target concentrations from the HCoV-229E experiment; settings: bovine, cell culture medium with 10% bovine serum
[11] = 1-hour D1,8,15 q4wk, ref phase 1 programme
[12] = 1-hour iv D1-5 q3wk, ref APL-A-004-98
[13] = 3-hour D1,15 q4wk, ref phase 1 programme
[14] = 24-hour D1,8,15 q4wk, ref phase 1 programme
[15] = 24-hour D1,15 q4wk, plitidepsin alone, ref phase 1 programme

## CC[C@H](C)[C@H]1NC(=O)[C@@H](NC(=O)[C@@H](CC(C)C)N(C)C(=O)[C@@H]2CCCN2C(=O)C(C)=O)[C@@H](C)OC(=O)[C@H](Cc2ccc(OC)cc2)N(C)C(=O)[C@@H]2CCCN2C(=O)[C@H](CC(C)C)NC(=O)[C@@H](C)C(=O)[C@H](C(C)C)OC(=O)C[C@@H]1O [Plitidepsin] (Pyruvoyl-P[dNMeL]T[X1]LP[NMeY](Me); ester 3-C)
SARS-CoV
  decrease in SARS-CoV genomic RNA accumulation: 10^4 fold
[1]
  CC50 at 3 d: 2900 nM
SARS-CoV-2/WA1; read-out: Antiviral IC50
  IC50: 0.201 nM
SARS-CoV-2/WA1; read-out: Antiviral IC90
  IC90: 0.881 nM
[2]
  lung-blood (LBR) AUC ratio: around 8 fold
SARS-CoV-2 [3]; 1.5 mg
  Mean time from baseline until undetectable viral load: 11 days
SARS-CoV-2 [3]; 2.0 mg
  Mean time from baseline until undetectable viral load: 14 days
SARS-CoV-2 [3]; 2.5 mg
  Mean time from baseline until undetectable viral load: 14 days
SARS-CoV-2 [3]; Day 4, 1.5 mg
  Mean change in viral load from baseline to: −1.23 log10 copies/ml
SARS-CoV-2 [3]; Day 4, 2.0 mg
  Mean change in viral load from baseline to: −1.49 log10 copies/ml
SARS-CoV-2 [3]; Day 4, 2.5 mg
  Mean change in viral load from baseline to: −1.32 log10 copies/ml
SARS-CoV-2 [3]; Day 4, Total
  Mean change in viral load from baseline to: −1.35 log10 copies/ml
SARS-CoV-2 [3]; Day 7, 1.5 mg
  Mean change in viral load from baseline to: −2.55 log10 copies/ml
SARS-CoV-2 [3]; Day 7, 2.0 mg
  Mean change in viral load from baseline to: −2.26 log10 copies/ml
SARS-CoV-2 [3]; Day 7, 2.5 mg
  Mean change in viral load from baseline to: −2.25 log10 copies/ml
SARS-CoV-2 [3]; Day 7, Total
  Mean change in viral load from baseline to: −2.35 log10 copies/ml
SARS-CoV-2 [3]; Day 15, 1.5 mg
  Mean change in viral load from baseline to: −4.22 log10 copies/ml
SARS-CoV-2 [3]; Day 15, 2.0 mg
  Mean change in viral load from baseline to: −2.70 log10 copies/ml
SARS-CoV-2 [3]; Day 15, 2.5 mg
  Mean change in viral load from baseline to: −2.92 log10 copies/ml
SARS-CoV-2 [3]; Day 15, Total
  Mean change in viral load from baseline to: −3.25 log10 copies/ml
SARS-CoV-2 [3]; Day 31, 1.5 mg
  Mean change in viral load from baseline to: −4.70 log10 copies/ml
SARS-CoV-2 [3]; Day 31, 2.0 mg
  Mean change in viral load from baseline to: −3.53 log10 copies/ml
SARS-CoV-2 [3]; Day 31, 2.5 mg
  Mean change in viral load from baseline to: −3.49 log10 copies/ml
SARS-CoV-2 [3]; Day 31, Total
  Mean change in viral load from baseline to: −3.85 log10 copies/ml
SARS-CoV-2 [3]; Total
  Mean time from baseline until undetectable viral load: 13 days
SARS-CoV-2 [3]; day 4
  mean viral load decline from baseline: 1.35 log10 copies/ml
SARS-CoV-2 [3]; day 7
  mean viral load decline from baseline: 2.35 log10 copies/ml
SARS-CoV-2 [3]; day 15
  mean viral load decline from baseline: 3.25 log10 copies/ml
SARS-CoV-2 [3]; day 31
  mean viral load decline from baseline: 3.85 log10 copies/ml
SARS-CoV-2 [3]; 1.5 mg/d, Day 4
  log10 viral load: 5.14 copies/ mL and 3.25 copies/ mL and 8.4 copies/ mL and 9.54 copies/ mL and 6.54 copies/ mL and 3.61 copies/ mL and 7.39 copies/ mL and 4.02 copies/ mL and 6.56 copies/ mL and 5.76 copies/ mL
SARS-CoV-2 [3]; 1.5 mg/d, Day 7
  log10 viral load: 8.47 copies/ mL and 6.63 copies/ mL and 4.34 copies/ mL and 4.7 copies/ mL and 5.83 copies/ mL and 4.71 copies/ mL and 3.82 copies/ mL
SARS-CoV-2 [3]; 1.5 mg/d, Day 15
  log10 viral load: 6.05 copies/ mL and 7.46 copies/ mL
SARS-CoV-2 [3]; 1.5 mg/d, Day 31
  log10 viral load: 4.42 copies/ mL
SARS-CoV-2 [3]; 2 mg/d, Day 4
  log10 viral load: 7.95 copies/ mL and 4.46 copies/ mL and 5.3 copies/ mL and 6.17 copies/ mL and 4.53 copies/ mL and 4.47 copies/ mL and 5.34 copies/ mL and 5.99 copies/ mL and 5.69 copies/ mL and 5.5 copies/ mL
SARS-CoV-2 [3]; 2 mg/d, Day 7
  log10 viral load: 6.52 copies/ mL and 4.68 copies/ mL and 4.59 copies/ mL and 3.38 copies/ mL and 4.02 copies/ mL and 3.62 copies/ mL and 4.33 copies/ mL and 2.89 copies/ mL and 5.2 copies/ mL and 5.49 copies/ mL
SARS-CoV-2 [3]; 2 mg/d, Day 15
  log10 viral load: 8.14 copies/ mL and 5.52 copies/ mL and 5.22 copies/ mL and 4.43 copies/ mL and 4.92 copies/ mL
SARS-CoV-2 [3]; 2 mg/d, Day 31
  log10 viral load: 7.37 copies/ mL and 4.31 copies/ mL and 4.69 copies/ mL
SARS-CoV-2 [3]; 2.5 mg/d, Day 4
  log10 viral load: 4.3 copies/ mL and 5.45 copies/ mL and 4.37 copies/ mL and 4.77 copies/ mL and 5.57 copies/ mL and 6.26 copies/ mL and 8.67 copies/ mL and 9.84 copies/ mL and 3.79 copies/ mL and 9.25 copies/ mL
SARS-CoV-2 [3]; 2.5 mg/d, Day 7
  log10 viral load: 3.05 copies/ mL and 4.44 copies/ mL and 5.49 copies/ mL and 3.33 copies/ mL and 7.29 copies/ mL and 9.54 copies/ mL and 6.99 copies/ mL
SARS-CoV-2 [3]; 2.5 mg/d, Day 15
  log10 viral load: 3.8 copies/ mL and 5.66 copies/ mL and 5.92 copies/ mL and 8.33 copies/ mL
SARS-CoV-2 [3]; 2.5 mg/d, Day 31
  log10 viral load: 3.6 copies/ mL and 5.33 copies/ mL and 4.68 copies/ mL
SARS-CoV-2 [3]; patients with mild or moderate disease at baseline
  mean time to undetectable viral load: 12 days
SARS-CoV-2 [3]; patients with severe disease at baseline
  mean time to undetectable viral load: 15 days
SARS-CoV-2 [4]
  IC90: 0.88 nM
[5]; plasma concentrations, non-compartmental analysis, ref study APL-B-015-14
  half-life: 48.1 h
[5]; whole blood concentrations, ref pharmacokinetic population analysis
  half-life: 161 h
SARS-CoV-2 [6]
  viral load in lungs: significant reduction in the viral load in lungs
CYP3A4
  major enzyme involved in plitidepsin metabolism: CYP3A4
[7]; [11]
  MTD: 3.60 mg/m2
  RD: 3.2 mg/m2
[7]; [12]
  MTD: 1.35 mg/m2
  RD: 1.2 mg/m2
[7]; [13]
  MTD: 6 mg/m2
  RD: 5 mg/m2
[7]; [14]
  MTD: 4.50 mg/m2
  RD: 3.75 mg/m2
[7]; [15]
  MTD: 6 mg/m2
  RD: 5 mg/m2
[7]; cancer patients, daily over 5 consecutive days
  recommended dose for subsequent phase 2 studies: 1.2 mg/m^2/day
[8]
  QTcF: ≤ 480 ms
  δ QTcF: ≤ 60 ms
SARS-CoV-2 [9]
  IC50: 38 nM
[10]
  fraction unbound: > 0.96
